The record followed here is publication PMC8398714, “Synthesis and Evaluation of Biological Activities of Bis(spiropyrazolone)cyclopropanes: A Potential Application against Leishmaniasis” (Molecules, 2021).

In data set [1] the test system is S. cerevisiae (W303 background). The data set can be described thus: Fungicidal activity (growth, OD600) on S. cerevisiae. The data set is classed as cell-based, Saccharomyces cerevisiae. The conditions noted are these: 24 h, OD600, concentrations 2.6 to 3000 µM, NA = no activity; for IC50: Saccharomyces cerevisiae, unit inferred, read-out: Inhibitory activity against S. cerevisiae W303 (IC50); for Inhibitory activity against S. cerevisiae W303 (IC50): unit not given. The protocol: Next, we determined the IC50 of bis(spiropyrazolone)cyclopropanes on a different eukaryotic model: the classical budding yeast S. cerevisiae. Cells were exposed to the compounds at concentrations ranging from 2.6 to 3000 µM for 24 h. The OD600 was measured to assess cell growth. […] These resistances could be explained by the presence of the fungal cell wall, which could limit the entry of bis(spiropyrazolone)cyclopropanes 4 into the cell. Other mechanisms cannot be ruled out, such as structural differences in molecular targets.
The antimicrobial activities of the synthesized compounds were tested against yeast S. cerevisiae (background W303), as described by Teran et al.. Concentrations ranging from 2468.7 to 2.4 µM were assayed.

The nature of data set [2]: Stability of solutions by spectroscopic measurements. It counts as physicochemical. The settings on record: DMSO solution; 100 μM in DMSO, room temperature.

SMILES strings stand for the structures.

With `CC1=NN(c2ccccc2)C(=O)[C@@]12C(c1ccccc1)[C@@]21C(=O)N(c2ccccc2)N=C1C` (relative stereo) [4b, (5R*,6R*)-4,10-Dimethyl-2,8,11-triphenyl-2,3,8,9-tetraazadispiro[4.0.4.1]undeca-3,9-diene-1,7-dione], the 50% inhibitory concentration (IC50) in data set [1] is 1380 ± 304 µM. For the same compound, the half-life at 100 µM in data set [2] was ~7.85 h.

For the compound `COC(=O)c1ccc(C2[C@@]3(C(=O)N(c4ccccc4)N=C3C)[C@]23C(=O)N(c2ccccc2)N=C3C)cc1` (relative stereo) [4q, (5R*,6R*)-Methyl-4[4,10-dimethyl-2,8-diphenyl-2,3,8,9-tetraazadispiro[4.0.4.1]undeca-3,9-diene-1,7-dione-11-yl]benzoate], in data set [1], the “Inhibitory activity against S. cerevisiae W303 (IC50)” value is reported as “slight measurable effect” and the IC50 is 1090 ± 38.5 µM. As for `CC1=NN(c2ccccc2)C(=O)[C@@]12C(c1ccc(C(F)(F)F)cc1)[C@@]21C(=O)N(c2ccccc2)N=C1C` (relative stereo) [4r, (5R*,6R*)-11-(4-Trifluoromethylphenyl)-4,10-dimethyl-2,8-diphenyl-2,3,8,9-tetraazadispiro[4.0.4.1]undeca-3,9-diene-1,7-dione], the IC50 in data set [1] was 1270 ± 119 µM. For the compound `CC1=NN(c2ccccc2)C(=O)[C@@]12C(c1ccc(OC(F)(F)F)cc1)[C@@]21C(=O)N(c2ccccc2)N=C1C` (relative stereo) [4s, (5R*,6R*)-11-(4-Trifluoromethoxyphenyl)-4,10-dimethyl-2,8-diphenyl-2,3,8,9-tetraazadispiro[4.0.4.1]undeca-3,9-diene-1,7-dione], in data set [1], the “Inhibitory activity against S. cerevisiae W303 (IC50)” value is “slight measurable effect” and the IC50 worked out at 789 ± 37.3 µM.

The IC50 is the concentration that gives 50% inhibition. What is called half-life is the time needed for the level to fall by half in the phase considered. High values mean slow loss, low ones fast loss.
